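Step 1: Grow cells in 96-well plates. Step 2: Expose to compound for 48 hours at 5 concentrations. Step 3: Interpolate endpoints linearly; if unreached, use highest concentration. GI50 = concentration required for 50% inhibition of growth.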 Active and inactive are the calls of the source. No stated cut-off is given here; in the data, active = GI50 up to about 1.1 µM and inactive = higher.
Tests used:
Test in all cases: NCI-60 cell line screen, 48 h
K562 = test system: K562
SF-295 = test system: SF-295
COLO 205 = test system: COLO 205
ACHN = test system: ACHN
NCI-H460 = test system: NCI-H460
M14 = test system: M14
KM-20L2 = test system: KM-20L2
SF-268 = test system: SF-268
SNB-75 = test system: SNB-75
UO-31 = test system: UO-31
UACC-62 = test system: UACC-62
HL-60 = test system: HL-60
SK-MEL-28 = test system: SK-MEL-28
KM12 = test system: KM12
NCI-H522 = test system: NCI-H522
MOLT-4 = test system: MOLT-4
DMS-114 = test system: DMS-114
SK-MEL-2 = test system: SK-MEL-2
NCI-H23 = test system: NCI-H23
OVCAR-5 = test system: OVCAR-5
UACC-257 = test system: UACC-257
SR = test system: SR
LXFL 529 = test system: LXFL 529
U-251 = test system: U-251
IGROV-1 = test system: IGROV-1
M19-MEL = test system: M19-MEL
HOP-62 = test system: HOP-62
RPMI-8226 = test system: RPMI-8226
RXF 393 = test system: RXF 393
Malme-3M = test system: Malme-3M
HT-29 = test system: HT-29
OVCAR-3 = test system: OVCAR-3
SNB-19 = test system: SNB-19
786-0 = test system: 786-0
SK-OV-3 = test system: SK-OV-3
A498 = test system: A498
HOP-92 = test system: HOP-92
SNB-78 = test system: SNB-78
OVCAR-4 = test system: OVCAR-4
Hs-578T = test system: Hs-578T
CCRF-CEM = test system: CCRF-CEM
TK-10 = test system: TK-10
LOX IMVI = test system: LOX IMVI
HCT-15 = test system: HCT-15
MDA-MB-231 = test system: MDA-MB-231
T47D = test system: T47D
NCI-H226 = test system: NCI-H226
MDA-MB-435 = test system: MDA-MB-435
SN12C = test system: SN12C
PC-3 = test system: PC-3
SK-MEL-5 = test system: SK-MEL-5
CAKI-1 = test system: CAKI-1
MDA-N = test system: MDA-N
SW-620 = test system: SW-620
NCI/ADR-RES = test system: NCI/ADR-RES
A549 = test system: A549
EKVX = test system: EKVX
MCF7 = test system: MCF7
SF-539 = test system: SF-539
HCT-116 = test system: HCT-116
DU-145 = test system: DU-145
OVCAR-8 = test system: OVCAR-8
HCC 2998 = test system: HCC 2998
BT-549 = test system: BT-549

Question: Which GI50 (K562) does the source give for `COc1ccc2c(c1)CC[C@@H]1C2CC[C@]2(C)C(=O)N(CCN3CCCC3)C(=O)CC12` (stereo partly drawn) here?
Answer: 20.4 µM (inactive)

Question: What about the GI50 (SF-295) of the same compound?
Answer: 19.1 µM (inactive)

Question: What about the GI50 (COLO 205) of the same compound?
Answer: 17.7 µM (inactive)

Question: What about the GI50 (ACHN) of the same compound?
Answer: 59.3 µM (inactive)

Question: What about the GI50 (NCI-H460) of the same compound?
Answer: 36.6 µM (inactive)

Question: What about the GI50 (M14) of the same compound?
Answer: 15.8 µM (inactive)

Question: What about the GI50 (KM-20L2) of the same compound?
Answer: 21.4 µM (inactive)

Question: What about the GI50 (SF-268) of the same compound?
Answer: 35.1 µM (inactive)

Question: And the GI50 (SNB-75)?
Answer: 15.1 µM (inactive)

Question: What about the GI50 (UO-31) of the same compound?
Answer: 17.9 µM (inactive)

Question: And the GI50 (UACC-62)?
Answer: 18.2 µM (inactive)

Question: And the GI50 (HL-60)?
Answer: 18.7 µM (inactive)

Question: And the GI50 (SK-MEL-28)?
Answer: 19.5 µM (inactive)

Question: What about the GI50 (KM12) of the same compound?
Answer: 29.4 µM (inactive)

Question: What about the GI50 (NCI-H522) of the same compound?
Answer: 23.1 µM (inactive)

Question: And the GI50 (MOLT-4)?
Answer: 17.3 µM (inactive)

Question: And the GI50 (DMS-114)?
Answer: 26.5 µM (inactive)

Question: What about the GI50 (SK-MEL-2) of the same compound?
Answer: 17.8 µM (inactive)

Question: And the GI50 (NCI-H23)?
Answer: 49.7 µM (inactive)

Question: And the GI50 (OVCAR-5)?
Answer: 26.1 µM (inactive)

Question: And the GI50 (UACC-257)?
Answer: 18.5 µM (inactive)

Question: What about the GI50 (SR) of the same compound?
Answer: 31 µM (inactive)

Question: And the GI50 (LXFL 529)?
Answer: 26.4 µM (inactive)

Question: And the GI50 (U-251)?
Answer: 43.9 µM (inactive)

Question: And the GI50 (IGROV-1)?
Answer: 44.7 µM (inactive)

Question: And the GI50 (M19-MEL)?
Answer: 18.2 µM (inactive)

Question: And the GI50 (HOP-62)?
Answer: 28.3 µM (inactive)

Question: And the GI50 (RPMI-8226)?
Answer: 15.3 µM (inactive)

Question: And the GI50 (RXF 393)?
Answer: 34 µM (inactive)

Question: And the GI50 (Malme-3M)?
Answer: 17 µM (inactive)

Question: What about the GI50 (HT-29) of the same compound?
Answer: 17.4 µM (inactive)

Question: What about the GI50 (OVCAR-3) of the same compound?
Answer: 27.5 µM (inactive)

Question: What about the GI50 (SNB-19) of the same compound?
Answer: > 100 µM (inactive)

Question: And the GI50 (786-0)?
Answer: 18.3 µM (inactive)

Question: What about the GI50 (SK-OV-3) of the same compound?
Answer: 66.7 µM (inactive)

Question: What about the GI50 (A498) of the same compound?
Answer: 27.9 µM (inactive)

Question: What about the GI50 (HOP-92) of the same compound?
Answer: 17.8 µM (inactive)

Question: And the GI50 (SNB-78)?
Answer: 31.4 µM (inactive)

Question: And the GI50 (OVCAR-4)?
Answer: 84.3 µM (inactive)

Question: Which results are given for `CSC(=N/N=C(\C)c1ccc(S(=O)(=O)N(C)c2ccccc2)cc1)SC`?
Answer: GI50 (Hs-578T): > 59.4 µM (inactive); GI50 (K562): > 53.1 µM (inactive); GI50 (SF-295): > 64.7 µM (inactive); GI50 (CCRF-CEM): 15.6 µM (inactive); GI50 (TK-10): > 100 µM (inactive); GI50 (COLO 205): > 67.1 µM (inactive); GI50 (ACHN): > 70 µM (inactive); GI50 (NCI-H460): > 100 µM (inactive); GI50 (LOX IMVI): > 69.7 µM (inactive); GI50 (M14): > 63.1 µM (inactive); GI50 (HCT-15): > 66.7 µM; GI50 (SF-268): > 66.5 µM (inactive); GI50 (SNB-75): > 63.1 µM (inactive); GI50 (UO-31): > 61.5 µM (inactive); GI50 (UACC-62): > 65.8 µM (inactive); GI50 (HL-60): > 43.5 µM (inactive); GI50 (MDA-MB-231): > 61.8 µM (inactive); GI50 (SK-MEL-28): > 67.9 µM (inactive); GI50 (KM12): > 64.4 µM (inactive); GI50 (NCI-H522): > 100 µM (inactive); GI50 (MOLT-4): 17.2 µM (inactive); GI50 (T47D): > 60.7 µM (inactive); GI50 (NCI-H226): > 100 µM (inactive); GI50 (MDA-MB-435): > 62.8 µM (inactive); GI50 (SK-MEL-2): > 62.2 µM (inactive); GI50 (SN12C): > 66.2 µM (inactive); GI50 (PC-3): > 62.7 µM (inactive); GI50 (NCI-H23): > 63.1 µM (inactive); GI50 (SK-MEL-5): > 100 µM (inactive); GI50 (OVCAR-5): > 66.5 µM (inactive); GI50 (CAKI-1): > 64.9 µM (inactive); GI50 (MDA-N): > 66.2 µM (inactive); GI50 (SW-620): > 66.4 µM (inactive); GI50 (UACC-257): > 100 µM (inactive); GI50 (SR): > 59.6 µM (inactive); GI50 (U-251): > 51.9 µM (inactive); GI50 (IGROV-1): > 61.4 µM (inactive); GI50 (NCI/ADR-RES): > 100 µM (inactive); GI50 (HOP-62): > 62.5 µM (inactive); GI50 (A549): > 100 µM (inactive); GI50 (RPMI-8226): 13.1 µM (inactive); GI50 (EKVX): > 65 µM (inactive); GI50 (MCF7): 31.1 µM (inactive); GI50 (SF-539): > 52.4 µM (inactive); GI50 (RXF 393): 27.7 µM (inactive); GI50 (HCT-116): > 64.7 µM (inactive); GI50 (Malme-3M): > 100 µM (inactive); GI50 (DU-145): > 66.4 µM (inactive); GI50 (OVCAR-8): > 100 µM (inactive); GI50 (HT-29): > 84.9 µM (inactive); GI50 (OVCAR-3): > 63.4 µM (inactive); GI50 (HCC 2998): > 100 µM (inactive); GI50 (SNB-19): > 66.2 µM (inactive); GI50 (BT-549): > 50.8 µM (inactive); GI50 (786-0): > 64.9 µM (inactive); GI50 (SK-OV-3): > 66.5 µM (inactive); GI50 (A498): > 63.8 µM (inactive); GI50 (HOP-92): > 43.8 µM (inactive); GI50 (OVCAR-4): > 58.6 µM (inactive)

Source: ChEMBL document CHEMBL1201862, “PubChem BioAssay data set” (2004)
